Data taken from US20180346505A1, “MONONUCLEOTIDES HAVING A BIOREVERSIBLE DISULFIDE GROUP” (priority 2014, published 2018).
Where “and” joins values, the source holds several entries; their conditions need not be identical. Identical values can stand only once.

Columns and labels:
GT1a (H77) HCV replicon = assay: HCV replicon assay, wild type GT1a (H77), luciferase based, stable format; format: cell-based, hepatitis C virus; details: Hepatitis C virus, GT1A, Huh-7, 72 h, Huh-7 cells
Procedure: (§1) The antiviral activity of the test compounds was assessed in the wild type GT1b (Con1), GT1a (H77), and GT1b/2a, GT1b/3a, GT1b/4a and GT1b/5a NS5B chimeric replicons, as well as the NS5B mutant replicons listed in Table 2a and 2b.
(§2) All the replicon assays were luciferase based in Huh-7 cells, either in stable format (GT1b and GT1a) or by transient transfection by electroporation (chimeric and mutant replicons). For a standard HCV replicon assay, stable or transiently transfected Huh-7 cells were seeded in 96-well plates (5,000 cells/well), cultured in DMEM containing 10% FBS, and incubated at 37° C., 5% CO2. On the following day, test compounds were diluted with assay media and added to the appropriate wells (final DMSO concentration in the cell culture medium was 0.5%). Assay reference positive control was included in each run to ensure assay performance. Cells were incubated at 37° C., 5% CO2 for 72 hours, at which time the cells were still sub-confluent. The antiviral activity was determined by measuring replicon reporter firefly luciferase activity using Bright Glo kit in accordance with the protocol provided by the supplier (Promega). The toxicity of the test compounds was assessed by CytoTox-1 cell proliferation assay (Promega). The half maximal effective concentration (EC50) and the half maximal toxic concentration (TC50) values were calculated using the GraphPad Prism software.

GT1b (Con1) HCV replicon = assay: HCV replicon assay, wild type GT1b (Con1), luciferase based, stable format; format: cell-based, hepatitis C virus; details: Huh-7 cells, 72 hours
Procedure: as §1, §2

[1] = test system: GT1b/2a NS5B chimeric replicon; assay: HCV replicon assay, GT1b/2a NS5B chimeric replicon, transient transfection; format: cell-based, hepatitis C virus; details: Hepatitis C virus, Huh-7, 72 h, read-out: GT2a EC50, GT1b/2a NS5B chimeric replicon, Huh-7 cells, luciferase, 72 hours
Procedure: as §1
(§3) To generate HCV NS5B chimeric replicons, the GT1 b replicon was used as a backbone with the NS5B gene replaced with the NS5B gene of GT2a, GT3a, GT4a and GT5a derived from clinical isolates. These NS5B genes were cloned into the GT1b backbone and were confirmed by sequencing.
as §2

[2] = test system: GT1b/3a NS5B chimeric replicon; assay: HCV replicon assay, GT1b/3a NS5B chimeric replicon, transient transfection; format: cell-based, hepatitis C virus; details: read-out: GT3a EC50; GT1b/3a NS5B chimeric replicon, Huh-7 cells, luciferase, 72 hours
Procedure: as §1, §3, §2

[3] = test system: GT1b/4a NS5B chimeric replicon; assay: HCV replicon assay, GT1b/4a NS5B chimeric replicon, transient transfection; format: cell-based, hepatitis C virus; details: Hepatitis C virus, Huh-7, 72 h, read-out: GT4a EC50, GT1b/4a NS5B chimeric replicon, Huh-7 cells, luciferase, 72 hours
Procedure: as §1, §3, §2

[4] = test system: GT1b/5a NS5B chimeric replicon; assay: HCV replicon assay, GT1b/5a NS5B chimeric replicon, transient transfection; format: cell-based, hepatitis C virus; details: Hepatitis C virus, Huh-7, 72 h, read-out: GT5a EC50, GT1b/5a NS5B chimeric replicon, Huh-7 cells, luciferase, 72 hours
Procedure: as §1, §3, §2

Huh-7 cells = assay: Toxicity by CytoTox-1 cell proliferation assay (TC50) and selectivity index; format: cell-based; details: TC50 by CytoTox-1 cell proliferation assay over replicon EC50, Huh-7 cells
Procedure: as §2

[5] = test system: GT1a S282T NS5B mutant replicon; assay: HCV NS5B mutant replicon assay, GT1a S282T; format: cell-based; details: Hepatitis C virus, Huh-7, 72 h, read-out: GT1a S282T EC50
Procedure: as §1
(§4) The HCV replicon mutants were generated by site-directed mutagenesis (SDM). The SDM was performed by PCR and the PCR fragments were inserted into the backbone replicon construct. The inserted PCR fragments and the mutants were confirmed by sequencing.
as §2

[6] = test system: GT1a L159F NS5B mutant replicon; assay: HCV NS5B mutant replicon assay, GT1a L159F; format: cell-based; details: Hepatitis C virus, Huh-7, 72 h, read-out: GT1a L159F EC50
Procedure: as §1, §4, §2

[7] = test system: GT1b S282T NS5B mutant replicon; assay: HCV NS5B mutant replicon assay, GT1b S282T; format: cell-based; details: Hepatitis C virus, Huh-7, 72 h, read-out: GT1b S282T EC50
Procedure: as §1, §4, §2

[8] = test system: GT1b S96T NS5B mutant replicon; assay: HCV NS5B mutant replicon assay, GT1b S96T; format: cell-based; details: Hepatitis C virus, Huh-7, 72 h, read-out: GT1b S96T EC50
Procedure: as §1, §4, §2

[9] = test system: GT1b L159F NS5B mutant replicon; assay: HCV NS5B mutant replicon assay, GT1b L159F; format: cell-based; details: Hepatitis C virus, Huh-7, 72 h, read-out: GT1b L159F EC50
Procedure: as §1, §4, §2

[10] = test system: GT1b C316N NS5B mutant replicon; assay: HCV NS5B mutant replicon assay, GT1b C316N; format: cell-based; details: Hepatitis C virus, Huh-7, 72 h, read-out: GT1b C316N EC50
Procedure: as §1, §4, §2

[11] = test system: GT3a S282T NS5B mutant replicon; assay: HCV NS5B mutant replicon assay, GT3a S282T; format: cell-based; details: Hepatitis C virus, Huh-7, 72 h, read-out: GT3a S282T EC50
Procedure: as §1, §3, §4, §2

[12] = test system: GT3a L159F NS5B mutant replicon; assay: HCV NS5B mutant replicon assay, GT3a L159F; format: cell-based; details: Hepatitis C virus, Huh-7, 72 h, read-out: GT3a L159F EC50
Procedure: as §1, §3, §4, §2

[13] = test system: GT3a V321A NS5B mutant replicon; assay: HCV NS5B mutant replicon assay, GT3a V321A; format: cell-based; details: Hepatitis C virus, Huh-7, 72 h, read-out: GT3a V321A EC50
Procedure: as §1, §3, §4, §2

[14] = Nucleoside phosphoester stability in simulated gastric fluid; format: in vitro ADME; details: simulated gastric fluid pH 1.2, 2 μM, 37° C.
Procedure: Test compounds at 2 μM were incubated at 37° C. with simulated gastric fluid (SGF, 0.2% (w/v) sodium chloride in 0.7% (v/v) hydrochloric acid, deionized water, 0.3% pepsin (w/v), pH 1.2). Duplicate samples were used. Samples were removed at 0, 15, 30, 60, 120, 360 and 1440 min, immediately mixed with cold acetonitrile containing internal standard (IS), and stored at −80° C. before analysis. Omeprazole was used as a positive control. Samples were analyzed by LC/MS/MS method, and disappearance of test compound was assessed by comparison of peak area ratios of analyte/IS and reported as % test compound remaining at each time point.

[15] = Nucleoside phosphoester stability in simulated intestinal fluid; format: in vitro ADME; details: simulated gi fluid, 2 μM, pH 6.8
Procedure: Test compounds at 2 μM were incubated at 37° C. with simulated intestinal fluid (SIF), which contains 0.68% (w/v) monobasic potassium phosphate and 1% (w/v) pancreatin in ultra-pure water (pH 6.8). Duplicate samples were used. Samples were removed at 0, 15, 30, 60, 120, 360 and 1440 min, immediately mixed with cold acetonitrile containing an internal standard (IS), and stored at −80° C. before analysis. Chlorambucil was used as a positive control. Samples were analyzed by a LC/MS/MS method, and disappearance of test compound was assessed by comparison of peak area ratios of analyte/IS and reported as % test compound remaining at each time point.

Q: What does the source list for `CC(C)(C)SSc1ccccc1CCOP1(=O)OC[C@H]2O[C@@H](n3ccc(N)nc3=O)[C@](C)(F)[C@@H]2O1` (single isomer, unassigned) [Compound 9A]?
A: EC50 (GT1a (H77) HCV replicon): 3 to 6 nM; EC50 (GT1b (Con1) HCV replicon): 7 nM and 4 to 5 nM; EC50 [1]: 3 nM; EC50 [2]: 6 nM and 4 to 6 nM; EC50 [3]: 3 nM; EC50 [4]: 2 nM; Selectivity Index (TC50/EC50) (Huh-7 cells): >500; EC50 [5]: 6 to 35 nM; EC50 [6]: 10 nM; EC50 [7]: 23 to 25 nM; EC50 [8]: 7 nM; EC50 [9]: 9 nM; EC50 [10]: 4 nM; EC50 [11]: 6 to 18 nM; EC50 [12]: 8 nM; EC50 [13]: 12 nM; % Remaining ([14]; 0 min): 100.00%; % Remaining ([14]; 15 min): 107.89%; % Remaining ([14]; 30 min): 102.51%; % Remaining ([14]; 60 min): 97.63%; % Remaining ([14]; 120 min): 94.89%; % Remaining ([14]; 360 min): 91.06%; % Remaining ([14]; 1440 min): 76.22%; % Remaining ([15]; 0 h): 100.00%; % Remaining ([15]; 0.25 h): 99.21%; % Remaining ([15]; 0.5 h): 103.81%; % Remaining ([15]; 1 h): 103.14%; % Remaining ([15]; 2 h): 109.48%; % Remaining ([15]; 6 h): 101.64%; % Remaining ([15]; 24 h): 98.27%
